Test results reported in patent US20100240627A1, “COMPOSITION AND METHODS RELATING TO GLUCOCORTICOID RECEPTOR-ALPHA AND PEROXISOME PROLIFERATOR-ACTIVATED RECEPTORS” (Universiteit Gent, priority 2007, published 2010).
pEC50: −log10 of the molar value.

Tests used:
[1] = test system: TRAP5b; experiment: Serum TRAP5b ELISA in DBA/1 mice; assay type: in vivo, mouse; details: DBA/1 mice serum, daily treatment 8 days
Source text: (§1) Male 8- to 12-wk-old DBA/1 mice are purchased from Janvier and housed following institutional guidelines. All animal procedures are approved by the institutional animal care and ethics committee. […] The experiment is repeated with agonists for PPARα replaced by the respective agonists for PPARγ (rosiglitazone) or PPARβ/δ (L165041). At day 8, murine serum is collected and used for the determination of TRAP5b and osteocalcin levels. The Mouse TRAP™ Assay is purchased from Immunodiagnostic Systems Ltd. The Mouse Osteocalcin EIA kit is purchased from Biomedical Technologies, Inc. All assays are performed according to the manufacturer's guidelines.
(§2) The experiment is repeated with agonists for PPARα replaced by the respective agonists for PPARγ (rosiglitazone) or PPARβ/δ(L165041). A TRAP5b ELISA assay is performed for the detection of differentiated osteoclasts.

[2] = test system: osteocalcin; experiment: Serum osteocalcin in DBA/1 mice; assay type: in vivo, mouse; details: daily treatment 8 days
Source text: as §1, §2

[3] = test system: ACO mRNA in mouse liver; experiment: Liver ACO mRNA in treated mice; assay type: in vivo; details: DEX 10 mg/kg i.p., FF 200 mg/kg gavage, daily 5 days
Source text: Female C57BL6J mice are used at 8 weeks. Mice are randomized to four groups (six mice/group) and matched for body weight. Animals are killed by cervical dislocation after which thymus and liver are recovered and weighed. Total RNA is extracted from liver as described below. ANOVA is used for all analyses, followed by Scheffe post-hoc tests for treated vs control comparisons. The level of significance for all statistical analyses is set at p<0.05.
GILZ and ACO mRNA expression levels from the liver are quantified via QPCR and normalized for household gene expression. Results from triplicates are shown ±SD. Results are represented as relative expression fold, i.e. with the solvent-treated control value taken as 1.

[4] = test system: calvarial cells; experiment: Ex vivo osteoclastogenesis and osteoblast differentiation of calvarial cells; assay type: cell-based, mouse; details: pharmacological DEX concentrations
Experimental: Glucocorticoid-induced osteoporosis (GIO) has been considered one of the most debilitating side-effects related to long-term GC usage (Berris, Repp et al. Curr Opin Endocrinol Diabetes Obes 14(6): 446-50). The effects of compositions and methods of the present invention on glucocorticoid-induced osteoporosis is determined by analysis of markers of osteoclastogenesis, including cathepsin K, M-CSF, RANKL and OPG. Since it is believed that an increase in bone resorption is worsened by inhibition of new bone formation, thereby contributing to the GC-mediated decrease in bone mineral density, the effect compositions and methods of the present invention on osteoblast differentiation is determined using calvarial cells isolated from 3-5 day old mice.
Alkaline phosphatase staining and Q-PCR are performed for the detection of Collal, Alkp, Runx-2 and Bglap (osteocalcin) expression after 10 days of osteoblast differentiation. Alizarin Red staining is performed to determine extracellular calcium deposition after 20 days of osteoblast differentiation.
Calvarial cells are isolated from 3-5 day old mice (SV 129 background). A piece of the tail is isolated for genotyping. The pups are decapitated with scissors in the laminar flow cabinet, skin and brain are removed and the calvaria transferred into eppendorf tubes containing 1 ml PBS+1% Pen/Strep. The tubes are put on ice until digestion. […]

[5] = test system: NF-κB-driven gene expression; experiment: p(IL6κB)350hu.IL6P-luc reporter in transfected HEK293T cells; assay type: cell-based; details: TNF 2000 IU/ml 8 h
Experimental: (§3) Cell lysates are assayed for luciferase activities and normalized for β-gal activities. A representative of three independent experiments is shown.

[6] = test system: GRE-driven gene transcription; experiment: p(GRE)2-50-luc reporter in HepG2 cells; assay type: cell-based, human; details: HepG2 overexpressing PPARα (pSG5PPARα); 8 h
Experimental: HepG2 and BWTG3 cells are transiently transfected using Lipofectamine according to the manufacturer's instructions, HEK293T cells using CaPO4. At day −1 40,000-50,000 cells/24-well are seeded. At day 0, medium is replaced by 360 μl of fresh normal medium with 10% serum to the cells. The DNA mix is prepared by dissolving (per 24-well) 400 ng of DNA in 20 μl of TE/CaCl2 solution. The DNA-containing mixture is added dropwise to 20 μl BS/Hepes mixture. All is mixed until a fine precipitate is visible. This precipitate is finally added onto the 360 μl medium. After 8 h, medium is replaced with fresh normal medium with 10% serum and inductions are performed the following day. […]
Luc and β-gal assays are carried out according to instructions of the manufacturer (Promega). Luc activity, expressed in arbitrary light units, is corrected for the protein conc. in the sample by normalization to constitutive β-gal levels. β-gal levels are quantified with a chemiluminescent reporter assay Galacto-Light kit (TROPIX, Bedford, Mass.).
HepG2 cells are transiently transfected with p(GRE)2-50-luc, and pSG5PPARα (black bars) or pSG5 (white bars). […] Promoter activities are expressed as relative induction factor, i.e., the ratio of expression levels of induced versus non-induced conditions.

[7] = test system: GRE-driven gene expression; experiment: p(GRE)2-50-luc reporter in transfected HEK293T cells; assay type: cell-based; details: 8 h, DEX 1 or 0.1 μM
Experimental: as §3

[8] = test system: TNF-induced IL-6 production in L929sA cells; experiment: TNF-induced IL-6 production, murine IL-6 ELISA; assay type: cell-based; details: 1 h pre-incubation, TNF 200 IU/ml 24 h, DEX 0.01 μM, GW647 0.25-1 μM, WY 2-10 μM, FIG. 1
Experimental: Murine IL-6 ELISA is performed using a kit from Biosource.
Medium is collected to perform a murine IL-6 ELISA. Protein levels obtained in ng/ml are calculated as % of max TNF response. Results are shown ±SD. **P<0.01, ***P<0.001 in FIG. 1.

[9] = test system: PDK-4 mRNA (PPARα target gene); experiment: PDK-4 mRNA in primary hepatocytes of WT and PPARα KO mice; assay type: cell-based, mouse; details: 24 h, GW9578 500 nM, WY 10 μM
Experimental: Mouse hepatocytes are isolated by collagenase perfusion from livers of wild type and PPARα KO (PPARα−/−) mice essentially using the collagenase method (18), with several modifications. Mouse livers are perfused with Hanks' balanced salt solution (HBSS, Sigma) at a rate of 5 ml/min via cave vein before addition of collagenase Type IV (0.025%, Sigma). Cell viability is assessed by a Trypan Blue exclusion test. […] After overnight incubation, cells are incubated in a fresh William's E medium supplemented with different compounds, DEX and/or PPARα agonists.

[10] = target: T1, mouse PPARα (Mus musculus, UniProt P23204); details: cited from earlier work
T1 sequence (P23204 1-468): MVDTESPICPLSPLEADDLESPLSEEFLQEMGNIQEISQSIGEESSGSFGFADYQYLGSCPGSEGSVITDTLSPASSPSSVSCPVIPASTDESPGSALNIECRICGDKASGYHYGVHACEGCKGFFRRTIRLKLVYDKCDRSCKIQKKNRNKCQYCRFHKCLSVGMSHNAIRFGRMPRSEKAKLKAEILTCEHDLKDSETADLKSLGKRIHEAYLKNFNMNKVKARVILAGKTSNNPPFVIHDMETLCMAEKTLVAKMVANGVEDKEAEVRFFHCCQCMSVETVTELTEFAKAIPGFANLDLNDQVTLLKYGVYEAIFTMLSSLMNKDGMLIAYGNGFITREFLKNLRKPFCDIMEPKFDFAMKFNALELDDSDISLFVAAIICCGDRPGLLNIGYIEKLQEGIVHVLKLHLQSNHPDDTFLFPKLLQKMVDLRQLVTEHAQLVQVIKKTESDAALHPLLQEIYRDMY

[11] = test system: cathepsin K; experiment: Cathepsin K expression in MG63b osteosarcoma cells; assay type: cell-based, human; details: 24 hour, DEX 10^−6M, WY 10 μM
Experimental: Cell culture—Human osteosarcoma cells MG63b and Saos-2 are cultured in Dulbecco Modified Eagle's Medium (DMEM) and McCoy's 5a Medium respectively, supplemented with 10% fetal calf serum (FCS), 100 units/ml penicillin and 0.1 mg/ml streptomycin. RT-PCR—After the appropriate inductions RNA is isolated from the cells by means of the RNeasy mini kit (Qiagen) according to the manufacturer's instructions. The mRNA is reverse transcribed with the verso cDNA kit (ABgene). The obtained cDNA is amplified by a quantitative PCR reaction with iQ Custom SYBR Green Supermix (Biorad). Gene expression of the housekeeping gene hypoxanthine-guanine phosphoribosyltransferase (HPRT) is used for normalization.

[12] = test system: Glucocorticoid-induced Leucine Zipper (GILZ) mRNA; experiment: QPCR of GILZ mRNA in HepG2 cells; assay type: cell-based, human; details: HepG2 (and A549) cells, 3 h; co-treatment compared to DEX alone
Experimental: (§4) RNA extraction is performed as described before (12). RNA is isolated from cells by using TRIzol reagent (Invitrogen) according to the manufacturer's instructions. The reverse transcriptase reaction is done by using MLV enzyme (Promega) followed by a PCR reaction with Taq polymerase (Promega) on the obtained cDNA. cDNA is analyzed either by a semi-quantitative PCR using Taq polymerase (Promega) or by real-time PCR with a SYBR Green mastermix (Invitrogen). Primers for QPCR of mIL-6: fwd […] (SEQ ID No. 1) and rev […] (SEQ ID No. 2); for mGILZ: fwd […] (SEQ ID No. […]) and rev […] (SEQ ID No. 4); for hGILZ: fwd […] (SEQ ID No. 5) and rev […] (SEQ ID No. 6); for mG6Pase: fwd […] (SEQ ID No. 7) and rev […] (SEQ ID No. 8); for rMCP-1: fwd […] (SEQ ID No. 9) and rev […] (SEQ ID No. 10); for mMMP-9: […] (SEQ ID No. 11) and rev […] (SEQ ID No. 12). Primers for semi-QPCR of hPLAP: fwd […] (SEQ ID No. 13) and rev […] (SEQ ID No. 14).
HepG2 cells and FTO2B cells are incubated with the indicated agents for three hours. mRNA is isolated, reverse transcribed and the resulting cDNA is subjected to SYBR green QPCR with primers to detect G6Pase or Glucocorticoid-induced Leucine Zipper (GILZ). QPCR measurements are performed in triplicate. QPCR results, normalized to expression of household genes, are shown ±SD, in FIGS. 2B and 2C. […]

[13] = test system: human placental alkaline phosphatase (hPAP) mRNA; experiment: Semi-quantitative PCR of hPAP mRNA; assay type: cell-based; details: HepG2 and A549 cells, 8 h; DEX 1 μM, WY 10 μM; co-treatment compared to DEX alone
Experimental: as §4
A549 or HepG2 cells are treated for eight hours, mRNA is isolated, reverse transcribed and the resulting cDNA is subjected to semi-quantitative PCR analysis with primers to detect GAPDH (loading control) or hPAP in the same sample. […] Treatment with WY alone has no effect on hPAP mRNA expression.

## C[C@@H]1C[C@H]2[C@@H]3CCC4=CC(=O)C=C[C@]4(C)[C@@]3(F)[C@@H](O)C[C@]2(C)[C@@]1(O)C(=O)CO [DEX, dexamethasone]
[1]
  TRAP5b levels: upregulates TRAP5b levels after 8 days
[2]
  amount of osteocalcin in murine serum: significantly lowers
[3]
  ACO mRNA levels in liver: no effect
[4]
  osteoclastogenesis: inhibit osteoclastogenesis

## CC(C)(Sc1ccc(CCN(CCCCC2CCCCC2)C(=O)NC2CCCCC2)cc1)C(=O)O [GW647, 2-(4-(2-(1-Cyclohexanebutyl-3-cyclohexylureido)ethyl)phenylthio)-2-methylpropionic acid]
[5]; HEK293T with pSVhGRα and pSG5PPARα, GW647 0.5 μM, FIG. 12A
  NF-κB-driven gene expression (luc): inhibits NF-κB-driven gene expression
[6]
  DEX-induced luciferase activity of p(GRE)2-50-luc: further enhanced
[7]; HEK293T with pSVhGRα and pSG5PPARα, GW647 0.5 μM, FIG. 13A
  GRE-driven gene expression (luc): able to antagonize GRE-driven gene expression
[8]
  TNF-induced IL-6 production: inhibited TNF-induced IL-6 production in a dose-responsive manner

## CCCCCCCN(CCc1ccc(SC(C)(C)C(=O)O)cc1)C(=O)Nc1ccc(F)cc1F [GW9578]
[9]
  PDK-4 mRNA levels: significant increase in PDK-4 mRNA levels only in WT cells
[10]
  pEC50: 8.30

## CCCc1c(OCCCOc2ccc(OCC(=O)O)cc2)ccc(C(C)=O)c1O [L165041]
[5]; HEK293T with pSVhGRα and pSG5PPARδ, L165041, FIG. 12B
  NF-κB-driven gene expression (luc): efficiently inhibit NF-κB-driven gene expression
[7]; HEK293T with pSVhGRα and pSG5PPARδ, L165041 1 μM, FIG. 13B
  GRE-driven gene expression (luc): able to antagonize the GRE-driven gene expression

## O=S(=O)(c1ccccc1)N(CC(F)(F)F)c1ccc(C(O)(C(F)(F)F)C(F)(F)F)cc1 [T0901317]
[5]; HEK293T with pSVhGRα and LXR plasmid, T0901317 1 μM, FIG. 12C
  NF-κB-driven gene expression (luc): efficiently inhibit NF-κB-driven gene expression
[7]; HEK293T with pSVhGRα and pCMX-LXR, T0901317 1 μM, FIG. 13C
  GRE-driven gene expression (luc): not able to antagonize GRE-driven gene expression

## Cc1cccc(Nc2cc(Cl)nc(SCC(=O)O)n2)c1C [WY, [[4-chloro-6-[(2,3-dimethylphenyl)amino]-2-pyrimidinyl]thio]-acetic acid]
[11]
  cathepsin K expression: prevent or reverse the upregulation
[6]
  DEX-induced luciferase activity of p(GRE)2-50-luc: confirmed
[9]
  PDK-4 mRNA levels: significant increase in PDK-4 mRNA levels only in WT cells
[12]
  GILZ mRNA expression: no effect
[13]
  hPAP mRNA expression: no effect
[8]
  TNF-induced IL-6 production: inhibited TNF-induced IL-6 production in a dose-responsive manner
